Source: ChEMBL document CHEMBL5715949, “Discovery of a selective irreversible BMX inhibitor for prostate cancer” (ACS Chem Biol, 2013)
The source made the active and inactive calls. The rule behind the calls is not given here.

Key:
[1] = biological target: Myosin light chain kinase family member 4 (Homo sapiens) (UniProt Q86YV6); assay: Inhibition of MYLK4 (unknown origin) assessed as remaining activity at 1 uM by Kinome scan method relative to control
[2] = biological target: Mitogen-activated protein kinase 12 (Homo sapiens) (UniProt P53778); assay: Inhibition of P38gamma (unknown origin) assessed as remaining activity at 1 uM by Kinome scan method relative to control
[3] = Cytotoxicity against mouse BaF3 cells assessed growth inhibition incubated for 2 to 5 days by CellTiter-Glo assay; format: toxicity, cell-based; conditions: time 2-5 day
[4] = test system: Tyrosine-protein kinase ABL1 (Homo sapiens), P00519 [T315I]; assay: Inhibition of ABL1 T315I mutant (unknown origin) assessed as remaining activity at 1 uM by Kinome scan method relative to control
[5] = biological target: RAC-gamma serine/threonine-protein kinase (Homo sapiens) (UniProt Q9Y243); assay: Inhibition of AKT3 (unknown origin) assessed as remaining activity at 1 uM by Kinome scan method relative to control
[6] = biological target: Bone morphogenetic protein receptor type-2 (Homo sapiens) (UniProt Q13873); assay: Inhibition of BMPR2 (unknown origin) assessed as remaining activity at 1 uM by Kinome scan method relative to control
[7] = biological target: Cyclin-dependent kinase 8 (Homo sapiens) (UniProt P49336); assay: Inhibition of CDK8 (unknown origin) assessed as remaining activity at 1 uM by Kinome scan method relative to control
[8] = biological target: Ephrin type-B receptor 3 (Homo sapiens) (UniProt P54753); assay: Inhibition of EPHB3 (unknown origin) assessed as remaining activity at 1 uM by Kinome scan method relative to control
[9] = test system: Fibroblast growth factor receptor 3 (Homo sapiens), P22607 [G697C]; assay: Inhibition of FGFR3 G697C mutant (unknown origin) assessed as remaining activity at 1 uM by Kinome scan method relative to control
[10] = biological target: Receptor-type tyrosine-protein kinase FLT3 (Homo sapiens) (UniProt P36888); assay: Inhibition of FLT3 (unknown origin) assessed as remaining activity at 1 uM by Kinome scan method relative to control
[11] = biological target: Vascular endothelial growth factor receptor 3 (Homo sapiens) (UniProt P35916); assay: Inhibition of FLT4 (unknown origin) assessed as remaining activity at 1 uM by Kinome scan method relative to control
[12] = test system: Mast/stem cell growth factor receptor Kit (Homo sapiens), P10721 [D816H]; assay: Inhibition of KIT D816H mutant (unknown origin) assessed as remaining activity at 1 uM by Kinome scan method relative to control
[13] = test system: Mast/stem cell growth factor receptor Kit (Homo sapiens), P10721 [V559D]; assay: Inhibition of KIT V559D mutant (unknown origin) assessed as remaining activity at 1 uM by Kinome scan method relative to control
[14] = biological target: Serine/threonine-protein kinase MAK (Homo sapiens) (UniProt P20794); assay: Inhibition of MAK (unknown origin) assessed as remaining activity at 1 uM by Kinome scan method relative to control
[15] = biological target: MAP/microtubule affinity-regulating kinase 4 (Homo sapiens) (UniProt Q96L34); assay: Inhibition of MARK4 (unknown origin) assessed as remaining activity at 1 uM by Kinome scan method relative to control
[16] = biological target: Dual specificity mitogen-activated protein kinase kinase 7 (Homo sapiens) (UniProt O14733); assay: Inhibition of MKK7 (unknown origin) assessed as remaining activity at 1 uM by Kinome scan method relative to control
[17] = biological target: Phosphatidylinositol 5-phosphate 4-kinase type-2 beta (Homo sapiens) (UniProt P78356); assay: Inhibition of PIP5K2B (unknown origin) assessed as remaining activity at 1 uM by Kinome scan method relative to control
[18] = biological target: Protein kinase C eta type (Homo sapiens) (UniProt P24723); assay: Inhibition of PRKCH (unknown origin) assessed as remaining activity at 1 uM by Kinome scan method relative to control
[19] = biological target: Rho-associated protein kinase 1 (Homo sapiens) (UniProt Q13464); assay: Inhibition of ROCK1 (unknown origin) assessed as remaining activity at 1 uM by Kinome scan method relative to control
[20] = biological target: Ribosomal protein S6 kinase alpha-1 (Homo sapiens) (UniProt Q15418); assay: Inhibition of N-terminal kinase domain RSK1 (unknown origin) assessed as remaining activity at 1 uM by Kinome scan method relative to control
[21] = biological target: Serine/threonine-protein kinase SBK1 (Homo sapiens) (UniProt Q52WX2); assay: Inhibition of SBK1 (unknown origin) assessed as remaining activity at 1 uM by Kinome scan method relative to control
[22] = biological target: STE20/SPS1-related proline-alanine-rich protein kinase (Homo sapiens) (UniProt Q9UEW8); assay: Inhibition of STK39 (unknown origin) assessed as remaining activity at 1 uM by Kinome scan method relative to control
[23] = biological target: Dual specificity testis-specific protein kinase 1 (Homo sapiens) (UniProt Q15569); assay: Inhibition of TESK1 (unknown origin) assessed as remaining activity at 1 uM by Kinome scan method relative to control
[24] = biological target: Serine/threonine-protein kinase tousled-like 1 (Homo sapiens) (UniProt Q9UKI8); assay: Inhibition of TLK1 (unknown origin) assessed as remaining activity at 1 uM by Kinome scan method relative to control
[25] = biological target: TRAF2 and NCK-interacting protein kinase (Homo sapiens) (UniProt Q9UKE5); assay: Inhibition of TNIK (unknown origin) assessed as remaining activity at 1 uM by Kinome scan method relative to control
[26] = biological target: Vascular endothelial growth factor receptor 2 (Homo sapiens) (UniProt P35968); assay: Inhibition of VEGFR2 (unknown origin) assessed as remaining activity at 1 uM by Kinome scan method relative to control
[27] = test system: RV-1; assay: Induction of apoptosis in human RV-1 cells assessed as decrease in number of cell at 5 uM incubated for 3 days by Hoechst 33342 staining based analysis; format: functional; conditions: time 3.0 day
[28] = Down regulation of BMX protein expression in human RV-1 cells expressing BMX C496S mutant assessed protein expression level at 2.5 uM pre incubated for 4 hrs followed by compound wash out and additon of CHX and measured after 16 hrs by immunoblot analysis (reference value: 1.01 to 1.13); format: functional
[29] = test system: RV-1; assay: Antiproliferative activity against human RV-1 cells assessed as reduction in cell viability at 500 to 2500 nM incubated for 5 days in presence of WYE125132 by CellTiter-Glo assay; format: functional, cell-based; conditions: dose 500-2500 nM, time 5.0 day
[30] = Induction of cell cycle arrest in human RV-1 cells assessed as accumulation of cells at G1 phase at 2.5 uM incubated for 5 days by propidium iodide staining based flow cytometric analysis (reference value: 59.7 %); format: functional; conditions: time 5 day
[31] = Induction of cell cycle arrest in human RV-1 cells assessed as accumulation of cells at G2/M phase at 2.5 uM incubated for 5 days by propidium iodide staining based flow cytometric analysis (reference value: 11.4 %); format: functional; conditions: time 5 day
[32] = Inhibition of PI3K/AKT/mTOR signalling pathway in human RV-1 cells assessed as decrease in AKT phosphorylation at T308 residue at 2.5 uM incubated for 5 days by immunoblot analysis; format: cell-based; conditions: time 5.0 day

Chain of Protein kinase C eta type (Homo sapiens) (P24723 whole entry): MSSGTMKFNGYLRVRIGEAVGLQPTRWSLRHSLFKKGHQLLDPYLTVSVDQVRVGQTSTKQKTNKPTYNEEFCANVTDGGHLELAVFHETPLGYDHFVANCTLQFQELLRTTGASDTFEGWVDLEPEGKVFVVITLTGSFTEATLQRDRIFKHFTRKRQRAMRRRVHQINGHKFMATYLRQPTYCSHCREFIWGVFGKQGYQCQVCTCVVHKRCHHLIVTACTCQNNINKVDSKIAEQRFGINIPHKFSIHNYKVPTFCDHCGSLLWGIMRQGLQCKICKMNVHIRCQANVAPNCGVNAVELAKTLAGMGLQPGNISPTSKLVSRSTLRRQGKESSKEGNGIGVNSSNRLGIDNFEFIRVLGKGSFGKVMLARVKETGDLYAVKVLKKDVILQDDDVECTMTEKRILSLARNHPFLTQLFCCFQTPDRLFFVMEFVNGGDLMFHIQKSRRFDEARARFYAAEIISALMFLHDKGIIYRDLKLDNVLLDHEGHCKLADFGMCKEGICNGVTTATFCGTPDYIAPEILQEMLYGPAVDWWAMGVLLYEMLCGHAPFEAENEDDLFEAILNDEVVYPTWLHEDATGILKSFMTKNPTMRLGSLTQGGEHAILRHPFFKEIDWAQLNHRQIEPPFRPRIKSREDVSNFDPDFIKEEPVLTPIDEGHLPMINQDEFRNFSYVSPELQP
Chain of Serine/threonine-protein kinase tousled-like 1 (Homo sapiens) (Q9UKI8 whole entry): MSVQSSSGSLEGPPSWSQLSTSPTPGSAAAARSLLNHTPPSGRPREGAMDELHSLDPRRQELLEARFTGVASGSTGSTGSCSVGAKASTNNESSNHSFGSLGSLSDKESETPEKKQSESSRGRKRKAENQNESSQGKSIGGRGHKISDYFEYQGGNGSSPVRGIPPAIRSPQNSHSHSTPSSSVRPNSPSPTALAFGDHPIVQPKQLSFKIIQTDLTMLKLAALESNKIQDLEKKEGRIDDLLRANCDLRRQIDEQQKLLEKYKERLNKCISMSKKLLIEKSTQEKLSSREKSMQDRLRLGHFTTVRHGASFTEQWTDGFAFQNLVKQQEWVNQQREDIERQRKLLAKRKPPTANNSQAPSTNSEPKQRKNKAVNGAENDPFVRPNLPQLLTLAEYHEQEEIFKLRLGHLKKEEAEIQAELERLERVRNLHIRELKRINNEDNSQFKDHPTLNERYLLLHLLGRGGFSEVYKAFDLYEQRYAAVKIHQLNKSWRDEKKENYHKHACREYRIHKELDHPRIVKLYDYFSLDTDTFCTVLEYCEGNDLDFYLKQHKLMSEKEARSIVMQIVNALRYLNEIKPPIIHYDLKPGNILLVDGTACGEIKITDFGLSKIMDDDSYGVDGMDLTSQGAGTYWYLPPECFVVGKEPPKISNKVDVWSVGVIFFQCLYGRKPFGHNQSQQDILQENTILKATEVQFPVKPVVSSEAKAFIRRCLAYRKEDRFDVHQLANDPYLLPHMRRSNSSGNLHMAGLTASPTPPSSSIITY
Chain of Dual specificity mitogen-activated protein kinase kinase 7 (Homo sapiens) (O14733 whole entry): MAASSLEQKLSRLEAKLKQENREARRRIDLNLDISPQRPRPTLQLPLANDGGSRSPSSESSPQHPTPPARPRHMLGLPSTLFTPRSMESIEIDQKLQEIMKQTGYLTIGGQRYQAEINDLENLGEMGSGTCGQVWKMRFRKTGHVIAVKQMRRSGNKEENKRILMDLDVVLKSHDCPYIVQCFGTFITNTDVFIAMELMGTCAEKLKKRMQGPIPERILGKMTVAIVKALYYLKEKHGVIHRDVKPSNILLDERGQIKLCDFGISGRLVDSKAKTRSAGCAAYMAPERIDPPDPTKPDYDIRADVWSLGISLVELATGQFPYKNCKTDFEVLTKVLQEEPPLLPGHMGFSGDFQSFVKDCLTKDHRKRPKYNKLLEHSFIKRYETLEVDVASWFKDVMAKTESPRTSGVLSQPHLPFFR
Chain of Cyclin-dependent kinase 8 (Homo sapiens) (P49336 whole entry): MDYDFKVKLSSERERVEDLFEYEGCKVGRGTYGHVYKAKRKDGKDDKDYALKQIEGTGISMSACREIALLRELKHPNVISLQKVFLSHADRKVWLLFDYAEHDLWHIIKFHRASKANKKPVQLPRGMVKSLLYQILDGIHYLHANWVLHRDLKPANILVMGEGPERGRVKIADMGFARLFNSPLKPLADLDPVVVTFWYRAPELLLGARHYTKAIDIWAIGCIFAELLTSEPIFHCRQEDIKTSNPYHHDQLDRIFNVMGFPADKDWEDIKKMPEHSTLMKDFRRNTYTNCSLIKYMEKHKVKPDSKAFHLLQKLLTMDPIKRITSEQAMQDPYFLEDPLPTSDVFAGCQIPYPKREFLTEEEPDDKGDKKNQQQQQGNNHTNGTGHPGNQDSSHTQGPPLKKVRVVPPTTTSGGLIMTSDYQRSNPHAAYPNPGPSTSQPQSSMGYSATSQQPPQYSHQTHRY
Chain of MAP/microtubule affinity-regulating kinase 4 (Homo sapiens) (Q96L34 whole entry): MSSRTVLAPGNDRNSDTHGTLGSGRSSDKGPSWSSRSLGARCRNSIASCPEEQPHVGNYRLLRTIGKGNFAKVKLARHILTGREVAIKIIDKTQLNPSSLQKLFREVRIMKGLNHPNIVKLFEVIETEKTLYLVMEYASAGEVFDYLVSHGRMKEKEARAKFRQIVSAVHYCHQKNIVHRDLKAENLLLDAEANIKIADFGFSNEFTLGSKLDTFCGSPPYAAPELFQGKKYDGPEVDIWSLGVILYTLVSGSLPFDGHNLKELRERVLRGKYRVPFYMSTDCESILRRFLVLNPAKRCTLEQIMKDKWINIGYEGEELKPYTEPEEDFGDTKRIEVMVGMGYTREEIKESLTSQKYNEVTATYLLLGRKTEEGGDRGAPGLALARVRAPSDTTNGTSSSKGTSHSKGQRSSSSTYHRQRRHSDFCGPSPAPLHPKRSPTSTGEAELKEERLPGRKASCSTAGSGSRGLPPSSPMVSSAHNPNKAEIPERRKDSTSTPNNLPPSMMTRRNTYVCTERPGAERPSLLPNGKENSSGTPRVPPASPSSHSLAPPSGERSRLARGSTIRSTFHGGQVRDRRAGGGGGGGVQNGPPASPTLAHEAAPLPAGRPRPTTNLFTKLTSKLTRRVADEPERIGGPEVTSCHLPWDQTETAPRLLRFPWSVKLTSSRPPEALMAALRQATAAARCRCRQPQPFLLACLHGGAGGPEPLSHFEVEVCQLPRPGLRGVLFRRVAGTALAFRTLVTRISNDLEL
Chain of TRAF2 and NCK-interacting protein kinase (Homo sapiens) (Q9UKE5 whole entry, looked up): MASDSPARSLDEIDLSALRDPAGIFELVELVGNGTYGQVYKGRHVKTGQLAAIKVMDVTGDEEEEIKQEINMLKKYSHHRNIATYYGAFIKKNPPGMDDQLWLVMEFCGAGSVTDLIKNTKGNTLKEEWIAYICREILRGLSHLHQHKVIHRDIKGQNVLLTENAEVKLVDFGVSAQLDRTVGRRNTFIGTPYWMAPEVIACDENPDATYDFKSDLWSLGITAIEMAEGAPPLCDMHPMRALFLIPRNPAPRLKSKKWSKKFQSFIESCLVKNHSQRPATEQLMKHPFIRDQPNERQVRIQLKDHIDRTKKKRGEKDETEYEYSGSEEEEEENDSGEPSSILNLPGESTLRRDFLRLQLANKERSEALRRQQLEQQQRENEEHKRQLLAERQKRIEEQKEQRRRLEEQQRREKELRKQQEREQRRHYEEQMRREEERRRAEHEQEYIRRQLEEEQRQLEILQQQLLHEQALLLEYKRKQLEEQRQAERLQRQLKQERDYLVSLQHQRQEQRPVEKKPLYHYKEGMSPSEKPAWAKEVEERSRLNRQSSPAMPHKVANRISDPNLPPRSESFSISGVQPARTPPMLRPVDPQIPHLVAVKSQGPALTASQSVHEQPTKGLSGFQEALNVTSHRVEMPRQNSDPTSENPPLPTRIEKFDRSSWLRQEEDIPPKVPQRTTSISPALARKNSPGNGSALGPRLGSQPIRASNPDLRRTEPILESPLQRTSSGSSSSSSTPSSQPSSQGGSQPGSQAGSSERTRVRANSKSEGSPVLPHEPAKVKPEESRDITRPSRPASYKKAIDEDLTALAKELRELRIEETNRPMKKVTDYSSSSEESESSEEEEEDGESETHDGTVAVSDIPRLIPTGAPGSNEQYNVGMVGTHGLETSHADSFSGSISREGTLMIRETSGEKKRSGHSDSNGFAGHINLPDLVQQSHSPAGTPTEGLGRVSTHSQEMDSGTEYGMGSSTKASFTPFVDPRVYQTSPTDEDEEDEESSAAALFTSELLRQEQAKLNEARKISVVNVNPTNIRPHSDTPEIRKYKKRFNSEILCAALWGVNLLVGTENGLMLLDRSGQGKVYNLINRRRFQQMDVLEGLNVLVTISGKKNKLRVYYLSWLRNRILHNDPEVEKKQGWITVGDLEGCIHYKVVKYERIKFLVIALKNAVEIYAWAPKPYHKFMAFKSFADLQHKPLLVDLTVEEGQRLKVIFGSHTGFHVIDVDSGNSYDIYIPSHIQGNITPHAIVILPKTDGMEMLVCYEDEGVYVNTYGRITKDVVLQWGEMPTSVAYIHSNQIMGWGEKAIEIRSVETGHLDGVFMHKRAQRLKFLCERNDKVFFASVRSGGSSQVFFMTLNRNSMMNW
Chain of Phosphatidylinositol 5-phosphate 4-kinase type-2 beta (Homo sapiens) (P78356 whole entry): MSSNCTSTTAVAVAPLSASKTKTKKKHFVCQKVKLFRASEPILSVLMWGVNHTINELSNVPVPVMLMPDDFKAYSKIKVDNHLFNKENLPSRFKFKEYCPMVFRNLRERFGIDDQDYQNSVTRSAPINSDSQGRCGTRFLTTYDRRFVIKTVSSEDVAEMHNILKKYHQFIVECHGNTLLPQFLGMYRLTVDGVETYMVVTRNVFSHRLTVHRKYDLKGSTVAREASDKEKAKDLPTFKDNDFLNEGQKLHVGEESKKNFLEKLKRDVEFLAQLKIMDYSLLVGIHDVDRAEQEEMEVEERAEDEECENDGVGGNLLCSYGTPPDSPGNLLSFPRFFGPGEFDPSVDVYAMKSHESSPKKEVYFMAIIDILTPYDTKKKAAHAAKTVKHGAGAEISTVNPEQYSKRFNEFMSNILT

Q: Which Activity [1] does the source give for `C=CC(=O)Nc1cc(-n2c(=O)ccc3cnc4ccc(-c5ccc(NS(C)(=O)=O)cc5)cc4c32)ccc1C` here?
A: 96%

Q: And the Activity [2]?
A: 72%

Q: And the GI50 [3]?
A: > 10 µM

Q: What about the Activity [4] of the same compound?
A: 87%

Q: And the Activity [5]?
A: 75%

Q: What about the Activity [6] of the same compound?
A: 69%

Q: What about the Activity [7] of the same compound?
A: 76%

Q: And the Activity [8]?
A: 83%

Q: What about the Activity [9] of the same compound?
A: 26%

Q: And the Activity [10]?
A: 80%

Q: And the Activity [11]?
A: 72%

Q: What about the Activity [12] of the same compound?
A: 99%

Q: And the Activity [13]?
A: 87%

Q: And the Activity [14]?
A: 70%

Q: What about the Activity [15] of the same compound?
A: 80%

Q: What about the Activity [16] of the same compound?
A: 49%

Q: What about the Activity [17] of the same compound?
A: 93%

Q: And the Activity [18]?
A: 98%

Q: And the Activity [19]?
A: 56%

Q: And the Activity [20]?
A: 76%

Q: What about the Activity [21] of the same compound?
A: 4.6%

Q: What about the Activity [22] of the same compound?
A: 68%

Q: What about the Activity [23] of the same compound?
A: 94%

Q: And the Activity [24]?
A: 86%

Q: What about the Activity [25] of the same compound?
A: 96%

Q: And the Activity [26]?
A: 97%

Q: What about the Activity [27] of the same compound?
A: Active

Q: What about the Activity [28] of the same compound?
A: 0.74

Q: And the Activity [29]?
A: Active

Q: What about the Activity [30] of the same compound?
A: 70.3%

Q: And the Activity [31]?
A: 9.1%

Q: What about the inhibition [32] of the same compound?
A: Active
